This is an account of results in patent US20260250320A1, “LIPIDATED PEPTIDE INHIBITORS OF INTERLEUKIN-23 RECEPTOR” (Janssen Pharmaceutica NV, priority 2023, published 2026).

*1 amine or outer side, *2 acyl side, *3 side chain or, on linkers, in order; H or OH if unused. Where a SMILES comes first, the peptide text is derived from it. Bridges are numbered along the chain shown (N, C = ends). Side-chain parts run from the residue outwards. [ ]: non-standard residue; d: D form. The star is where a group is joined. ξ: configuration not given here. X22 = O=C(O)CCCCCCCCCCCCCCCCC(=O)N[C@@H](CCC(=O)NCCOCCOCC(=O)NCCCCCOCC(=O)*)C(=O)O; Me3N+(CH2)2O(CH2)2O(CH2)2CO = C[N+](C)(C)CCOCCOCCC(=O)*; dTrp(7-Me) = Cc1cccc2c(C[C@@H](N)C(=O)O)c[nH]c12; Biotin = O=C1N[C@H]2[C@H](CS[C@H]2CCCCC(=O)*)N1; Trp(7-Me) = Cc1cccc2c(C[C@H](N)C(=O)O)c[nH]c12; C18 diacid = O=C(O)CCCCCCCCCCCCCCCCC(=O)*; γGlu = O=C(O)[C@H](CCC(=O)[*:2])N[*:1]; 2Nal = N[C@@H](Cc1ccc2ccccc2c1)C(=O)O; AEF = NCCOc1ccc(C[C@H](N)C(=O)O)cc1; X2 = C[N+](C)(C)C[C@@H](CC(=O)O)N*; αMeT = C[C@@H](O)[C@](C)(N)C(=O)O; 3Pal = N[C@@H](Cc1cccnc1)C(=O)O; PEG4 = NCCOCCOCCOCCOCCC(=O)O; Pen = CC(C)(S)[C@H](N)C(=O)O; Suc = O=C(CCC(=O)[*:2])[*:1]; Thp = NC1(C(=O)O)CCOCC1; ξN = NC(=O)CC(N)C(=O)O; AEEA = NCCOCCOCC(=O)O; Sar = CNCC(=O)O

In one assay the target is T1, IL-23R (Homo sapiens, UniProt Q5VWK5).
T1 construct: HEK293 cells containing IL-23R, IL-12Rβ1 and a firefly luciferase reporter gene driven by a STAT-inducible promoter (Promega); host or cells: HEK293
T1 sequence (Q5VWK5 24-629): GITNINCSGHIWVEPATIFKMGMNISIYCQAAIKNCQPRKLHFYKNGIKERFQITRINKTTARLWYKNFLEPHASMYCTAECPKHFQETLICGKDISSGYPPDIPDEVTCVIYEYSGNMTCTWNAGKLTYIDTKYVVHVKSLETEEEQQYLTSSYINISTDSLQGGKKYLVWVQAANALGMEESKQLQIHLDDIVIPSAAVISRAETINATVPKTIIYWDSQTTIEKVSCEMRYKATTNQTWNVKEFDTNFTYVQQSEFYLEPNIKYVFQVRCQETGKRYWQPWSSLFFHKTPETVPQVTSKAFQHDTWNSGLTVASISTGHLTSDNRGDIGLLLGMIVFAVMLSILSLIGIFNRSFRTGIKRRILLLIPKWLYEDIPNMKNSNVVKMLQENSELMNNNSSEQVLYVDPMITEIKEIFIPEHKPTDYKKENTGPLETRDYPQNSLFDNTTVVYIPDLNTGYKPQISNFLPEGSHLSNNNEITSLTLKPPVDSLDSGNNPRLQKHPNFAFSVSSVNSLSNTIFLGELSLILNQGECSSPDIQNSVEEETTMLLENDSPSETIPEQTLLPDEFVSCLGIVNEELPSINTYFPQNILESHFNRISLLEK
Description: IL23R Reporter Assay. The class given is cell-based. Particulars: HEK293 cells containing IL-23R, IL-12Rβ1 and STAT-inducible firefly luciferase reporter; 10 ng/mL IL-23 (EC90); 5 h. In outline: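 HEK293 cells carrying IL-23R, IL-12Rβ1 and a STAT-driven firefly luciferase reporter (4000 cells/well) received compound, then 10 ng/mL IL-23 solution (EC90), and were incubated for 5 h at 37° C. BioGlo luminescence was normalised to IL-23 alone (0%) and 30 μM control inhibitor (100%). IC50 came from a 4-parameter Hill fit.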
For orientation: Reporter assays use an easily measured gene product as a stand-in for the process of interest.

Assay [1] concerns IL-23-stimulated phosphorylated STAT3 in peripheral blood mononuclear cells (PBMCs). Description: PBMC pSTAT3 Assay. The class given is cell-based. Conditions: PBMCs from healthy donors; 30 min preincubation with peptide; IL-23 5 ng/mL for 30 min; phospho-STAT3 by MSD. The method in brief:
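Healthy-donor PBMCs expanded 4 days on anti-CD3 with 100 ng/mL IL-1β, starved ~4 h in RPMI-0.1% BSA, preincubated 30 min with peptide, then stimulated 30 min at 37 °C with 5 ng/mL IL-23. Lysate pSTAT3 measured by MSD phospho-STAT panel; IC50 derived.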

Regarding `CC(=O)NCCCC[C@@H]1NC(=O)[C@H](Cc2c[nH]c3c(C)cccc23)NC(=O)[C@H]([C@@H](C)O)NC(=O)[C@H](CC(N)=O)NC(=O)[C@@H](NC(=O)[C@@H](CCCNC(=N)N)NC(C)=O)C(C)(C)SSC(C)(C)[C@@H](C(=O)N[C@@H](Cc2ccc(OCCN)cc2)C(=O)N[C@@H](Cc2ccc3ccccc3c2)C(=O)NC2(C(=O)N[C@@H](CCCCNC(=O)CCC(=O)N[C@H](CC(=O)O)C[N+](C)(C)C)C(=O)N[C@@H](CC(N)=O)C(=O)N[C@@H](Cc3cccnc3)C(=O)N(C)CC(=O)N[C@@H](CCCCNC(=O)COCCOCCNC(=O)COCCOCCNC(=O)CC[C@H](NC(=O)CCCCCCCCCCCCCCCCC(=O)O)C(=O)O)C(N)=O)CCOCC2)NC1=O` [compound 51, MeCO-r-Pen(3)-N-T-7MeW-K(Ac)-Pen(3)-AEF-2Nal-THP-K(d)-N-3Pya-Sar-K(PEG2PEG2gEC18OH)-CONH2] (Ac-[dR][Pen]NT[Trp(7-Me)]K(Ac)[Pen][AEF][2Nal][Thp]K([Suc-X2])N[3Pal][Sar]K([AEEA-AEEA-γGlu-C18 diacid])-NH2; disulfide 2-7), the concentration for half-maximal inhibition (IC50) against IL-23R is not below 500 nM; in assay [1], less than 0.5 nM.
Regarding `CC(=O)N[C@H](CCCNC(=N)N)C(=O)N[C@@H]1C(=O)N[C@@H](CC(N)=O)C(=O)N[C@@H]([C@@H](C)O)C(=O)N[C@@H](Cc2c[nH]c3c(C)cccc23)C(=O)N[C@@H](CCCCNC(=O)CCC(=O)N[C@H](CC(=O)O)C[N+](C)(C)C)C(=O)N[C@H](C(=O)N[C@@H](Cc2ccc(OCCN)cc2)C(=O)N[C@@H](Cc2ccc3ccccc3c2)C(=O)NC2(C(=O)N[C@@H](CCC(=O)O)C(=O)N[C@@H](CC(N)=O)C(=O)N[C@@H](Cc3cccnc3)C(=O)N(C)CC(=O)N[C@@H](CCCCNC(=O)COCCOCCNC(=O)COCCOCCNC(=O)CC[C@H](NC(=O)CCCCCCCCCCCCCCCCC(=O)O)C(=O)O)C(N)=O)CCOCC2)C(C)(C)SSC1(C)C` [compound 52, MeCO-r-Pen(3)-N-T-7MeW-K(d)-Pen(3)-AEF-2Nal-THP-E-N-3Pya-Sar-K(PEG2PEG2gEC18OH)-CONH2] (Ac-[dR][Pen]NT[Trp(7-Me)]K([Suc-X2])[Pen][AEF][2Nal][Thp]EN[3Pal][Sar]K([AEEA-AEEA-γGlu-C18 diacid])-NH2; disulfide 2-7), the IC50 is 50 to 500 nM against IL-23R and less than 0.5 nM in assay [1].
With `CC(=O)NCCCC[C@@H]1NC(=O)[C@H](Cc2c[nH]c3c(C)cccc23)NC(=O)[C@H]([C@@H](C)O)NC(=O)[C@H](CCCCNC(=O)CCC(=O)N[C@H](CC(=O)O)C[N+](C)(C)C)NC(=O)[C@@H](NC(=O)[C@@H](CCCNC(=N)N)NC(C)=O)C(C)(C)SSC(C)(C)[C@@H](C(=O)N[C@@H](Cc2ccc(OCCN)cc2)C(=O)N[C@@H](Cc2ccc3ccccc3c2)C(=O)NC2(C(=O)N[C@@H](CCC(=O)O)C(=O)N[C@@H](CC(N)=O)C(=O)N[C@@H](Cc3cccnc3)C(=O)N(C)CC(=O)N[C@@H](CCCCNC(=O)COCCOCCNC(=O)COCCOCCNC(=O)CC[C@H](NC(=O)CCCCCCCCCCCCCCCCC(=O)O)C(=O)O)C(N)=O)CCOCC2)NC1=O` [compound 53, MeCO-r-Pen(3)-K(d)-T-7MeW-K(Ac)-Pen(3)-AEF-2Nal-THP-E-N-3Pya-Sar-K(PEG2PEG2gEC18OH)-CONH2] (Ac-[dR][Pen]K([Suc-X2])T[Trp(7-Me)]K(Ac)[Pen][AEF][2Nal][Thp]EN[3Pal][Sar]K([AEEA-AEEA-γGlu-C18 diacid])-NH2; disulfide 2-7), the IC50 against IL-23R was 50 to 500 nM; in assay [1], less than 0.5 nM.
As for `CC(=O)NCCCC[C@@H]1NC(=O)[C@H](Cc2c[nH]c3c(C)cccc23)NC(=O)[C@H]([C@@H](C)O)NC(=O)[C@H](CC(N)=O)NC(=O)[C@@H](NC(=O)[C@@H](CCCNC(=N)N)NC(=O)CCC(=O)N[C@H](CC(=O)O)C[N+](C)(C)C)C(C)(C)SSC(C)(C)[C@@H](C(=O)N[C@@H](Cc2ccc(OCCN)cc2)C(=O)N[C@@H](Cc2ccc3ccccc3c2)C(=O)NC2(C(=O)N[C@@H](CCC(=O)O)C(=O)N[C@@H](CC(N)=O)C(=O)N[C@@H](Cc3cccnc3)C(=O)N(C)CC(=O)N[C@@H](CCCCNC(=O)COCCOCCNC(=O)COCCOCCNC(=O)CC[C@H](NC(=O)CCCCCCCCCCCCCCCCC(=O)O)C(=O)O)C(N)=O)CCOCC2)NC1=O` [compound 54, succiniccarn-r-Pen(3)-N-T-7MeW-K(Ac)-Pen(3)-AEF-2Nal-THP-E-N-3Pya-Sar-K(PEG2PEG2gEC18OH)-CONH2] ({X2-Suc}-[dR][Pen]NT[Trp(7-Me)]K(Ac)[Pen][AEF][2Nal][Thp]EN[3Pal][Sar]K([AEEA-AEEA-γGlu-C18 diacid])-NH2; disulfide 2-7), the figures for the IC50 (at IL-23R; in assay [1]) were 50 to 500 nM and less than 0.5 nM, respectively.
Take `CC(=O)NCCCC[C@@H]1NC(=O)[C@H](Cc2c[nH]c3c(C)cccc23)NC(=O)[C@H]([C@@H](C)O)NC(=O)[C@H](CCCCNC(=O)COCCOCCNC(=O)COCCOCCNC(=O)CC[C@H](NC(=O)CCCCCCCCCCCCCCCCC(=O)O)C(=O)O)NC(=O)[C@@H](NC(=O)[C@@H](CCCNC(=N)N)NC(=O)CCOCCOCC[N+](C)(C)C)C(C)(C)SSC(C)(C)[C@@H](C(=O)N[C@@H](Cc2ccc(OCCN)cc2)C(=O)N[C@@H](Cc2ccc3ccccc3c2)C(=O)NC2(C(=O)N[C@@H](CCC(=O)O)C(=O)N[C@@H](CC(N)=O)C(=O)N[C@@H](Cc3cccnc3)C(=O)N(C)CC(N)=O)CCOCC2)NC1=O` [compound 55, cPEG3aCO-r-Pen(3)-K(PEG2PEG2gEC18OH)-T-7MeW-K(Ac)-Pen(3)-AEF-2Nal-THP-E-N-3Pya-Sar-CONH2] ({Me3N+(CH2)2O(CH2)2O(CH2)2CO}-[dR][Pen]K([AEEA-AEEA-γGlu-C18 diacid])T[Trp(7-Me)]K(Ac)[Pen][AEF][2Nal][Thp]EN[3Pal][Sar]-NH2; disulfide 2-7): the IC50 was 50 to 500 nM against IL-23R and less than 0.5 nM in assay [1].
Take `CC(=O)NCCCC[C@@H]1NC(=O)[C@H](Cc2c[nH]c3c(C)cccc23)NC(=O)[C@](C)([C@@H](C)O)NC(=O)C(CC(N)=O)NC(=O)[C@@H](NC(=O)[C@@H](CCCNC(=N)N)NC(C)=O)C(C)(C)SSC(C)(C)[C@@H](C(=O)N[C@@H](Cc2ccc(OCCN)cc2)C(=O)N[C@@H](Cc2ccc3ccccc3c2)C(=O)NC2(C(=O)N[C@@H](CCCCNC(=O)CCOCCOCCOCCOCCNC(=O)CCCC[C@@H]3SC[C@@H]4NC(=O)N[C@@H]43)C(=O)N[C@@H](CC(N)=O)C(=O)N[C@@H](Cc3cccnc3)C(=O)N(C)CC(=O)N[C@@H](CCCCNC(=O)COCCOCCNC(=O)COCCOCCNC(=O)CC[C@H](NC(=O)CCCCCCCCCCCCCCCCC(=O)O)C(=O)O)C(N)=O)CCOCC2)NC1=O` (stereo partly drawn) [compound 56, MeCO-r-Pen(3)-N-T-7MeW-K(Ac)-Pen(3)-AEF-2Nal-THP-K(BiotinPEG4)-N-3Pya-Sar-K(PEG2PEG2gEC18OH)-CONH2] (Ac-[dR][Pen][ξN][αMeT][Trp(7-Me)]K(Ac)[Pen][AEF][2Nal][Thp]K([PEG4-Biotin])N[3Pal][Sar]K([AEEA-AEEA-γGlu-C18 diacid])-NH2; disulfide 2-7): the IC50 against IL-23R was less than 50 nM; in assay [1], less than 0.5 nM.
Turning to `CC(=O)NCCCC[C@@H]1NC(=O)[C@@H](Cc2c[nH]c3c(C)cccc23)NC(=O)[C@H]([C@@H](C)O)NC(=O)[C@H](CC(N)=O)NC(=O)[C@@H](NC(=O)[C@@H](CCCNC(=N)N)NC(=O)CCOCCOCCOCCOCCNC(=O)CCCC[C@@H]2SC[C@@H]3NC(=O)N[C@@H]32)C(C)(C)SSC(C)(C)[C@@H](C(=O)N[C@@H](Cc2ccc(OCCN)cc2)C(=O)N[C@@H](Cc2ccc3ccccc3c2)C(=O)NC2(C(=O)N[C@@H](CCC(=O)O)C(=O)N[C@@H](CC(N)=O)C(=O)N[C@@H](Cc3cccnc3)C(=O)N(C)CC(=O)N[C@@H](CCCCNC(=O)COCCCCCNC(=O)COCCOCCNC(=O)CC[C@H](NC(=O)CCCCCCCCCCCCCCCCC(=O)O)C(=O)O)C(N)=O)CCOCC2)NC1=O` [compound 57, BiotinPEG4CO-r-Pen(3)-N-T-7MeW-K(Ac)-Pen(3)-AEF-2Nal-THP-E-N-3Pya-Sar-K(PEG2PEG2gEC18OH)-CONH2] ({Biotin-PEG4}-[dR][Pen]NT[dTrp(7-Me)]K(Ac)[Pen][AEF][2Nal][Thp]EN[3Pal][Sar]K(X22)-NH2; disulfide 2-7), the results for the IC50 (on IL-23R; in assay [1]) were less than 50 nM and less than 0.5 nM, respectively.

One may read the IC50 as the concentration that gives 50% inhibition. Low values mean greater potency in that assay, high ones weaker potency in that assay.
